Experimental data published in US7611729B2, “Dosage forms having prolonged active ingredient release” (Lunamed AG, priority 2001, dated 2009).

System: adenocarcinoma of the prostate
Test: Human test results: oral treatment of prostate cancer patients with slow release tablets
Format: in vivo
Conditions: general statement
Description: Diseases that can be beneficially influenced by the present dosage form include in particular benign prostate hyperplasy, cancer, leukemias, cystic fibrosis, AIDS, kidney and liver diseases, thalassemia and urea cycle disorders. For example, the treatment of an adenocarcinoma of the prostate can be carried out by administering twice daily, e.g. in the morning and evening, a pharmaceutical tablet formulation containing 250 mg of sodium 4-phenylbutyrate. […] Treatment may be continued for several month or years until a satisfactory effect is observed or the patient is total free of the disease.
Following are descriptions of treatments and test results obtained from human patients.
This patient presented on Apr. […] Because of progressive bone pains they underwent bilateral orchiectomy in February 1996. They became free of pain until November 1998 when they again suffered bone pains mainly in their back. They were than treated orally twice daily with 250 mg of sodium phenylbutyrate retard tablets according to Example 1. Four weeks later they were free of pain.
This patient presented in March 1997 with a pathological fracture of the 8th thoracic vertebra caused by metastatic destruction. The multiple biopsies of the slightly enlarged prostate was positive for adenocarcinoma on both sides. […] On Apr. 10, 1997 they underwent bilateral orchidectomy. […]

O=C([O-])CCCc1ccccc1.[Na+] [sodium 4-phenylbutyrate]
therapeutic effect (pains) (adenocarcinoma of the prostate, tablet with 250 mg twice daily, after treatment of about one month): pains disappear
side effects (long period of treatment): no side effects
